Measurements as given in US10800778B2 (Entasis Therapeutics Limited, priority 2016, dated 2020).
Structures can show the parent of a compound that is named as a salt.

Assays:
[1] = target: TEM-1 (Class A beta-lactamase) (Escherichia coli, UniProt P62593); assay: Inhibition of beta-lactamase enzymes (nitrocefin hydrolysis), TEM-1; format: biochemical; details: read-out: Class A TEM-1 60 min IC50, nitrocefin 100 μM
Description: (§1) A buffer consisting of 0.1 M sodium phosphate (pH 7.0), 10 mM NaHCO3, and 0.005% Triton X-100 was used for all enzymes. The chromogenic substrate nitrocefin (SynGene, Bangalore, India) was used at 100 μM. Enzyme activity was monitored by the 490 nm absorbance increase upon nitrocefin hydrolysis. Assays were performed in clear polystyrene 384-well plates (Greiner Bio-One, Monroe, N.C.). Absorbance was measured for 1 hour at 30-s intervals using a Spectramax absorbance plate reader (Molecular Devices, Sunnyvale, Calif.). Measurement of beta-lactamase inhibition by INHIBITOR employed serial 3-fold dilutions of the inhibitor in assay buffer, ranging from 100 μM to 62.7 pM. A background absorbance progress curve for a control lacking enzyme and inhibitor was subtracted from each progress curve.
(§2) The complete set of progress curves for one enzyme with all inhibitor concentrations was subjected to numerical integration with the program Kintek Global Kinetic Explorer (Kintek Corp, Snowshoe Pa.) to obtain a best-fit to the mechanism shown in Scheme 10.
(§3) where E, S, ES, P, I, and EI are the concentrations of the enzyme, nitrocefin, the enzyme-nitrocefin complex, the nitrocefin hydrolysis product, INHIBITOR, and the enzyme-INHIBITOR complex respectively. […] The values of k+2, k+3, and k−3 were fit. Concentration series offsets of the absorbance measurements were used to correct for slight absorbance baseline differences between wells. The parameter k+3 is equivalent to the second order rate constant kinact/Ki. In some cases, the inhibition was in rapid equilibrium on the experimental time scale, so that only the ratio k−3/k+3=Ki could be determined. Although k−3 represents reversal of inhibitor binding in Scheme 10, hydrolysis of the enzyme-inhibitor complex could not be excluded based on kinetic measurements.
(§4) Best-fit absorbance values from the above procedure at each time point for each compound concentration were exported to Excel.
(§5) where A is the best-fit absorbance without inhibitor and Ainhib is the best-fit absorbance in the presence of the inhibitor.
(§6) where [I] is the inhibitor concentration and n is the Hill coefficient. The Excel add-in XLfit (ID Business Solutions) was used for nonlinear regression.

[2] = target: OXA-48 (Class D beta-lactamase) (Klebsiella pneumoniae, UniProt Q6XEC0); assay: Inhibition of beta-lactamase enzymes (nitrocefin hydrolysis), OXA-48; format: biochemical; details: read-out: Class D OXA-48 60 min IC50, nitrocefin 100 μM
Chain of OXA-48 (Class D beta-lactamase) (Q6XEC0 whole entry, looked up, species assumed): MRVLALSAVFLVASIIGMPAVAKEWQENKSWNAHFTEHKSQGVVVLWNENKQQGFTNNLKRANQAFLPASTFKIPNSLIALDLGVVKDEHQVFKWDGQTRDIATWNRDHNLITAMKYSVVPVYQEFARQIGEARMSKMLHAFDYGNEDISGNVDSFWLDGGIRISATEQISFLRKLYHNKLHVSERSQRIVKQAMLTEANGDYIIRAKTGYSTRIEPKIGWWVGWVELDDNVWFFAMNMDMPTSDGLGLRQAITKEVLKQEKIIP
Description: as §1, §2, §3, §4, §5, §6

Chain of TEM-1 (Class A beta-lactamase) (P62593 whole entry, looked up, species assumed): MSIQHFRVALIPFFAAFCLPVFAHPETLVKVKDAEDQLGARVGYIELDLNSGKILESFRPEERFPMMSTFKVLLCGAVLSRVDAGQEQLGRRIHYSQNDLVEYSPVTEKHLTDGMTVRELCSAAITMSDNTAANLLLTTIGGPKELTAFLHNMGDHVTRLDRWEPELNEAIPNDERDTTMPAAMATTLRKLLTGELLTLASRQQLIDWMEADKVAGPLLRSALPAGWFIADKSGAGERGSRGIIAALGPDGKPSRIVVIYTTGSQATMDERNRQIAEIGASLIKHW

Q: How did the IC50 [1] turn out when `CC1=C[C@@H]2CN(C(=O)N2OC(F)C(=O)O)[C@@H]1C(N)=O` (mixture of isomers) [Example 5, {[(2S,5R)-2-carbamoyl-3-methyl-7-oxo-1,6-diazabicyclo[3.2.1]oct-3-en-6-yl]oxy}(fluoro)acetic acid lithium salt (mixture of diastereomers)] was run?
A: 4.4 nM

Q: What about the IC50 [2] of the same compound?
A: 17 nM

Q: For `CC1=C[C@@H]2CN(C(=O)N2OC(C)(F)C(=O)O)[C@@H]1C(N)=O` (mixture of isomers) [Example 11, 2-{[(2S,5R)-2-carbamoyl-3-methyl-7-oxo-1,6-diazabicyclo[3.2.1]oct-3-en-6-yl]oxy}-2-fluoropropanoic acid lithium salt (mixture of diastereomers)], which IC50 [1] is on record?
A: 230 nM

Q: What about the IC50 [2] of the same compound?
A: 22000 nM

Q: Which IC50 [1] does the source give for `NC(=O)[C@@H]1C(C2CC2)=C[C@@H]2CN1C(=O)N2OC(F)C(=O)O` (stereo in doubt) [Example 42, (2R)-2-(((2S,5R)-2-carbamoyl-3-cyclopropyl-7-oxo-1,6-diazabicyclo[3.2.1]oct-3-en-6-yl)oxy)-2-fluoroacetic acid lithium salt] here?
A: 24 nM

Q: What about the IC50 [2] of the same compound?
A: 5.2 nM

Q: What does the source list for `NC(=O)[C@@H]1CC[C@@H]2CN1C(=O)N2O[C@H](F)C(=O)O` [Comparator 98, reference compound]?
A: IC50 [1]: 1.3 nM; IC50 [2]: 2600 nM

Q: How did the IC50 [1] turn out when `O=C(O)C(F)ON1C(=O)N2C[C@H]1CC[C@H]2C(=O)NC1CCNCC1` (stereo partly drawn) [Comparator 99, reference compound] was run?
A: 30 nM

Q: And the IC50 [2]?
A: 82000 nM

Q: Which IC50 [1] does the source give for `CC1=C[C@@H]2CN(C(=O)N2OC(F)(F)C(=O)O)[C@@H]1C(N)=O` [Example 8, {[(2S,5R)-2-carbamoyl-3-methyl-7-oxo-1,6-diazabicyclo[3.2.1]oct-3-en-6-yl]oxy}(difluoro)acetic acid lithium salt] here?
A: 1.5 nM

Q: And the IC50 [2]?
A: 14 nM

Q: How did the IC50 [1] turn out when `CC1=C[C@@H]2CN(C(=O)N2OCC(=O)O)[C@@H]1C(N)=O` [Example 10, {[(2S,5R)-2-carbamoyl-3-methyl-7-oxo-1,6-diazabicyclo[3.2.1]oct-3-en-6-yl]oxy}acetic acid lithium salt] was run?
A: 430 nM

Q: What about the IC50 [2] of the same compound?
A: 51 nM

Q: For `CC(=O)NNC(=O)[C@@H]1C(C)=C[C@@H]2CN1C(=O)N2OC(F)C(=O)O` (stereo partly drawn) [Example 27, 2-(((2S,5R)-2-(2-acetylhydrazinecarbonyl)-3-methyl-7-oxo-1,6-diazabicyclo[3.2.1]oct-3-en-6-yl)oxy)-2-fluoroacetic acid lithium salt], which IC50 [1] is on record?
A: 47 nM

Q: What about the IC50 [2] of the same compound?
A: 18 nM

Q: What does the source list for `CC1=C[C@@H]2CN(C(=O)N2OC(F)C(=O)O)[C@@H]1C(=O)NCc1cnccn1` (stereo partly drawn) [Example 30, 2-fluoro-2-(((2S,5R)-3-methyl-7-oxo-2-((pyrazin-2-ylmethyl)carbamoyl)-1,6-diazabicyclo[3.2.1]oct-3-en-6-yl)oxy)acetic acid lithium salt]?
A: IC50 [1]: 81 nM; IC50 [2]: 140 nM

Q: How did the IC50 [1] turn out when `NC(=O)[C@@H]1C(C2CC2)=C[C@@H]2CN1C(=O)N2O[C@H](F)C(=O)O` [Example 41, (2R)-2-(((2S,5R)-2-carbamoyl-3-cyclopropyl-7-oxo-1,6-diazabicyclo[3.2.1]oct-3-en-6-yl)oxy)-2-fluoroacetic acid lithium salt] was run?
A: 3.5 nM

Q: And the IC50 [2]?
A: 6.4 nM

Q: How did the IC50 [1] turn out when `CC1=C[C@@H]2CN(C(=O)N2OC(F)C(=O)O)[C@@H]1c1nnc(C(N)=O)o1` (stereo partly drawn) [Example 55, 2-[[(2S,5R)-2-(5-carbamoyl-1,3,4-oxadiazol-2-yl)-3-methyl-7-oxo-1,6-diazabicyclo[3.2.1]oct-3-en-6-yl]oxy]-2-fluoro-acetic acid lithium salt] was run?
A: 24 nM

Q: What about the IC50 [2] of the same compound?
A: 7.3 nM

Q: `CC1=C[C@@H]2CN(C(=O)N2O[C@@H](F)C(=O)O)[C@@H]1C(=O)NOCCS(N)(=O)=O` [Example 56, (2S)-2-fluoro-2-[[(2S,5R)-3-methyl-7-oxo-2-(2-sulfamoylethoxycarbamoyl)-1,6-diazabicyclo[3.2.1]oct-3-en-6-yl]oxy]acetic acid lithium salt] was tested. Which IC50 [1] did it give?
A: 93 nM

Q: What about the IC50 [2] of the same compound?
A: 220 nM

Q: `CC1=C[C@@H]2CN(C(=O)N2O[C@@H](F)C(=O)O)[C@@H]1C(=O)NCCS(N)(=O)=O` [Example 57, (2S)-2-fluoro-2-[[(2S,5R)-3-methyl-7-oxo-2-(2-sulfamoylethylcarbamoyl)-1,6-diazabicyclo[3.2.1]oct-3-en-6-yl]oxy]acetic acid lithium salt] was tested. Which IC50 [1] did it give?
A: 57 nM

Q: And the IC50 [2]?
A: 410 nM

Q: Which results are given for `CC1=C[C@@H]2CN(C(=O)N2O[C@@H](F)C(=O)O)[C@@H]1C(=O)NOC[C@@H]1CC(F)(F)CN1` [Example 63, (2S)-2-(((2S,5R)-2-((((S)-4,4-difluoropyrrolidin-2-yl)methoxy)carbamoyl)-3-methyl-7-oxo-1,6-diazabicyclo[3.2.1]oct-3-en-6-yl)oxy)-2-fluoroacetic acid TFA salt]?
A: IC50 [1]: 110 nM; IC50 [2]: 230 nM

Q: Which IC50 [1] does the source give for `CC1=C[C@@H]2CN(C(=O)N2O[C@@H](F)C(=O)O)[C@@H]1C(=O)NC1COC1` [Example 66, (2S)-2-fluoro-2-[[(2S,5R)-3-methyl-2-(oxetan-3-ylcarbamoyl)-7-oxo-1,6-diazabicyclo[3.2.1]oct-3-en-6-yl]oxy]acetic acid lithium salt] here?
A: 660 nM

Q: And the IC50 [2]?
A: 12 nM

Q: `CC1=C[C@@H]2CN(C(=O)N2O[C@@H](F)C(=O)O)[C@@H]1C(=O)NCCNS(C)(=O)=O` [Example 67, (2S)-2-fluoro-2-[[(2S,5R)-2-[2-(methanesulfonamido)ethylcarbamoyl]-3-methyl-7-oxo-1,6-diazabicyclo[3.2.1]oct-3-en-6-yl]oxy]acetic acid lithium salt] was tested. Which IC50 [1] did it give?
A: 64 nM

Q: And the IC50 [2]?
A: 340 nM

Q: For `CC1=C[C@@H]2CN(C(=O)N2O[C@@H](F)C(=O)O)[C@@H]1C(=O)NCc1ncco1` [Example 68, (2S)-2-fluoro-2-[[(2S,5R)-3-methyl-2-(oxazol-2-ylmethylcarbamoyl)-7-oxo-1,6-diazabicyclo[3.2.1]oct-3-en-6-yl]oxy]lacetic acid lithium salt], which IC50 [1] is on record?
A: 310 nM

Q: And the IC50 [2]?
A: 78 nM

Q: With `CC1=C[C@@H]2CN(C(=O)N2O[C@@H](F)C(=O)O)[C@@H]1C(=O)NCc1cnccn1` [Example 69, (2S)-2-fluoro-2-[[(2S,5R)-3-methyl-7-oxo-2-(pyrazin-2-ylmethyl-carbamoyl)-1,6-diazabicyclo[3.2.1]oct-3-en-6-yl]oxy]acetic acid lithium salt] as the compound, how does the IC50 [1] read?
A: 180 nM

Q: What about the IC50 [2] of the same compound?
A: 110 nM

Q: Which results are given for `CC1=C[C@@H]2CN(C(=O)N2O[C@@H](F)C(=O)O)[C@@H]1C(=O)NOCC1CC1` [Example 70, (2S)-2-[[(2S,5R)-2-(cyclopropylmethoxycarbamoyl)-3-methyl-7-oxo-1,6-diazabicyclo[3.2.1]oct-3-en-6-yl]oxy]-2-fluoro-acetic acid lithium salt]?
A: IC50 [1]: 26 nM; IC50 [2]: 87 nM

Q: What does the source list for `CC1=C[C@@H]2CN(C(=O)N2O[C@@H](F)C(=O)O)[C@@H]1C(=O)NCCC(N)=O` [Example 71, (2S)-2-[[(2S,5R)-2-[(3-amino-3-oxo-propyl)carbamoyl]-3-methyl-7-oxo-1,6-diazabicyclo[3.2.1]oct-3-en-6-yl]oxy]-2-fluoro-acetic acid lithium salt]?
A: IC50 [1]: 110 nM; IC50 [2]: 75 nM

Q: Which results are given for `CC1=C[C@@H]2CN(C(=O)N2O[C@@H](F)C(=O)O)[C@@H]1C(=O)NOC[C@@H]1CCC(=O)N1` [Example 72, (2S)-2-fluoro-2-[[(2S,5R)-3-methyl-7-oxo-2-[(5-oxopyrrolidin-2-yl)methoxycarbamoyl]-1,6-diazabicyclo[3.2.1]oct-3-en-6-yl]oxy]acetic acid lithium salt]?
A: IC50 [1]: 77 nM; IC50 [2]: 110 nM

Q: How did the IC50 [1] turn out when `CC1=C[C@@H]2CN(C(=O)N2O[C@@H](F)C(=O)O)[C@@H]1C(=O)NCC[C@@H]1CCC(=O)N1` [Example 73, (2S)-2-fluoro-2-[[(2S,5R)-3-methyl-7-oxo-2-[2-(5-oxopyrrolidin-2-yl)ethylcarbamoyl]-1,6-diazabicyclo[3.2.1]oct-3-en-6-yl]oxy]acetic acid lithium salt] was run?
A: 730 nM

Q: What about the IC50 [2] of the same compound?
A: 530 nM

Q: How did the IC50 [1] turn out when `CC1=C[C@@H]2CN(C(=O)N2O[C@@H](F)C(=O)O)[C@@H]1C(=O)NCCCS(N)(=O)=O` [Example 74, (2S)-2-fluoro-2-[[(2S,5R)-3-methyl-7-oxo-2-(3-sulfamoylpropylcarbamoyl)-1,6-diazabicyclo[3.2.1]oct-3-en-6-yl]oxy]acetic acid lithium salt] was run?
A: 280 nM

Q: And the IC50 [2]?
A: 590 nM

Q: For `CC1=C[C@@H]2CN(C(=O)N2O[C@@H](F)C(=O)O)[C@@H]1CNC(=O)OC(C)(C)C` [Example 76, (2S)-2-[[(2S,5R)-2-[tert-butoxycarbonylamino)methyl]-3-methyl-7-oxo-1,6-diazabicyclo[3.2.1]oct-3-en-6-yl]oxy]-2-fluoro-acetic acid lithium salt], which IC50 [1] is on record?
A: 940 nM

Q: And the IC50 [2]?
A: 220 nM
